Assays:
[1] = tested on: THP-1; test: Antiinflammatory activity against human THP1 cells assessed as inhibition of LPS-stimulated IL6 production after 6 hrs by ELISA; assay type: functional, cell-based; settings: THP-1, 6 h
[2] = tested on: THP-1; test: Antiinflammatory activity against human THP1 cells assessed as inhibition of LPS-stimulated IL6 production by ELISA relative to N-(4-(1,1,1,3,3,3-hexafluoro-2-hydroxypropan-2-yl)phenyl)-N-(2,2,2-trifluoroethyl)benzenesulfonamide; assay type: functional
[3] = biological target: T1, Oxysterols receptor LXR-alpha (Homo sapiens, UniProt Q13133); test: Displacement of [N-methyl-3H]GW0438 from human biotinylated LXRalpha ligand binding domain
T1 sequence (Q13133 whole entry): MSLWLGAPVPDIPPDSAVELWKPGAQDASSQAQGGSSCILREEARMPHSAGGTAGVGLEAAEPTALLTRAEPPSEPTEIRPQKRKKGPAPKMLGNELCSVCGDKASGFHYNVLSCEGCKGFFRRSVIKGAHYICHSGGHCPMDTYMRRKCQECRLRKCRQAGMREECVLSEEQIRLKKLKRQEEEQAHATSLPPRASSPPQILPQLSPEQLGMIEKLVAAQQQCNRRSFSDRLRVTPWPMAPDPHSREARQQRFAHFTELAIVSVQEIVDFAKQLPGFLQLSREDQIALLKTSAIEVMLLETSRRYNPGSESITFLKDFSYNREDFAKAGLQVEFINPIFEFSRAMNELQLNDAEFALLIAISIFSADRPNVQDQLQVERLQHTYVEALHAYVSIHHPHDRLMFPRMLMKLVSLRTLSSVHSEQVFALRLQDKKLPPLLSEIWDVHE

[4] = tested on: Huh-7; test: Lipogenic activity against human HuH7 cells assessed as triglyceride accumulation at 10 uM after 4 days relative to N-(4-(1,1,1,3,3,3-hexafluoro-2-hydroxypropan-2-yl)phenyl)-N-(2,2,2-trifluoroethyl)benzenesulfonamide; assay type: functional
[5] = Metabolic stability in human HuH7 cells at 1 uM after 24 hrs; assay type: ADME, cell-based, Huh-7; settings: read-out: Stability
[6] = biological target: T2, Nuclear receptor subfamily 1 group I member 2 (Homo sapiens, UniProt O75469); test: Inhibition of human PXR
T2 sequence (O75469 whole entry): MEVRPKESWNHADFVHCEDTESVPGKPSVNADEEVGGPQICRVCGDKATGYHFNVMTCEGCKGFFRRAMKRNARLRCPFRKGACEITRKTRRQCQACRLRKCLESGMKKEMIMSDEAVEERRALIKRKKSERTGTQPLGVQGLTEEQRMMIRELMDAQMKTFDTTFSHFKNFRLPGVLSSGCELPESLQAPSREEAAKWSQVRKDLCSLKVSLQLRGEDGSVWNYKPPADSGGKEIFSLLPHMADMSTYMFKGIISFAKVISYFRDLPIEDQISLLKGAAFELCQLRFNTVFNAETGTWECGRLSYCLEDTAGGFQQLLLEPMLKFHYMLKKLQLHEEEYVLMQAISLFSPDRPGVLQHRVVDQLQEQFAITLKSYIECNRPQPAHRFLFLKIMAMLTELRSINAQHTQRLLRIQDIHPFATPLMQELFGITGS

[7] = biological target: T1, Oxysterols receptor LXR-alpha; test: Activation of LXRalpha by GAL4 reporter gene assay
[8] = biological target: Oxysterols receptor LXR-beta (Homo sapiens, UniProt P55055)
Sequence of Oxysterols receptor LXR-beta (P55055 whole entry): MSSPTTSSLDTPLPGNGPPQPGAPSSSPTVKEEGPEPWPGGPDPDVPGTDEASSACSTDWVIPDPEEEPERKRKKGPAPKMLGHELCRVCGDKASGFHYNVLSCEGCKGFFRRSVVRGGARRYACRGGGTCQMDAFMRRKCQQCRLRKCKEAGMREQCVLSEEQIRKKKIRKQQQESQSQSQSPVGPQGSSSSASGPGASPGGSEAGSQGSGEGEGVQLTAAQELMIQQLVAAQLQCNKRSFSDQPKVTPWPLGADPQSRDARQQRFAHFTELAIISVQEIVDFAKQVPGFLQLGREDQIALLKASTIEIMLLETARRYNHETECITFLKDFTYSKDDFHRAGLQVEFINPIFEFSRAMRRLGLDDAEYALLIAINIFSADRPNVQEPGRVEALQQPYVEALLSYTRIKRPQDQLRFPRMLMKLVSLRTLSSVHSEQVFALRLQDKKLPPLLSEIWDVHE

Row | IC50 [1] [µM] | IC50 [3] [µM] | remaining at 24 h, 1 µM [5] [%] | EC50 [6] [µM] | EC50 [7] [µM] | IC50 [8] [µM] | SMILES | Activity [2] | Activity [4]
1 | 1.29 | 0.89 |  |  |  |  | CCCCN(Cc1cc(Cl)cc(Cl)c1O)c1ccc(C(O)(C(F)(F)F)C(F)(F)F)cc1 | <0.5 | 
2 | 0.015 | 0.17 |  |  |  |  | CCCCN(Cc1cc(Cl)c(OC)c(Cl)c1)c1ccc(C(O)(C(F)(F)F)C(F)(F)F)cc1 | 1 | 0.8
3 | 0.025 | 0.56 |  |  |  |  | CCCCN(Cc1ccc(O)c(Cl)c1)c1ccc(C(O)(C(F)(F)F)C(F)(F)F)cc1 | 1 | 0.6
4 | 0.035 | 0.18 |  |  |  |  | CCCCN(Cc1ccccc1O)c1ccc(C(O)(C(F)(F)F)C(F)(F)F)cc1 | 1 | 0.6
5 | 0.035 | 0.16 |  |  |  |  | CCCCN(Cc1cccc(O)c1)c1ccc(C(O)(C(F)(F)F)C(F)(F)F)cc1 | 1 | 0.5
6 |  | 0.955 |  |  |  |  | CCCCN(Cc1ccc(O)cc1)c1ccc(C(O)(C(F)(F)F)C(F)(F)F)cc1 |  | 
7 | 0.015 | 0.165 |  |  |  |  | CCCCN(Cc1cc(Cl)c(OC)c(OC)c1)c1ccc(C(O)(C(F)(F)F)C(F)(F)F)cc1 | 1 | 0.4
8 | 0.015 | 0.18 | 40 | 0.25 | 3 |  | CCCCN(Cc1cc(Cl)c(O)c(Cl)c1)c1ccc(C(O)(C(F)(F)F)C(F)(F)F)cc1 | 1 | <0.1
9 | 0.01 | 0.195 |  |  |  |  | CCCCN(Cc1cc(Cl)cc(Cl)c1)c1ccc(C(O)(C(F)(F)F)C(F)(F)F)cc1 | 1 | 0.7
10 |  | 0.19 |  |  |  |  | CCCCN(Cc1cc(OC(F)(F)F)ccc1O)c1ccc(C(O)(C(F)(F)F)C(F)(F)F)cc1 |  | 1
11 | 0.02 | 0.09 |  |  |  |  | CCCCN(Cc1ccncc1)c1ccc(C(O)(C(F)(F)F)C(F)(F)F)cc1 | 1 | 1.1
12 | 0.005 | 0.115 |  |  |  |  | CCCCN(Cc1cccc(OCCO)c1)c1ccc(C(O)(C(F)(F)F)C(F)(F)F)cc1 | 1 | 1.8
13 | 0.02 | 0.12 |  |  |  |  | CCCCN(Cc1ccccn1)c1ccc(C(O)(C(F)(F)F)C(F)(F)F)cc1 | 1 | 1.1
14 | 0.025 | 0.17 |  |  |  |  | CCCCN(Cc1ccccc1)c1ccc(C(O)(C(F)(F)F)C(F)(F)F)cc1 | 1 | 0.8
15 |  | 0.31 |  |  |  |  | CN(Cc1ccccc1)c1ccc(C(O)(C(F)(F)F)C(F)(F)F)cc1 |  | >0.5
16 | 0.055 | 0.22 |  |  |  |  | CCCCN(Cc1cc(Cl)ccc1O)c1ccc(C(O)(C(F)(F)F)C(F)(F)F)cc1 | 1 | 1
17 |  | 0.315 |  |  |  |  | OC(c1ccc(N(Cc2ccccc2)Cc2ccccc2)cc1)(C(F)(F)F)C(F)(F)F |  | >0.5
18 | 0.06 | 0.615 |  |  |  |  | CCCCN(Cc1cccc(F)c1O)c1ccc(C(O)(C(F)(F)F)C(F)(F)F)cc1 | 1 | 1.9
19 | 0.01 | 0.775 |  |  |  |  | CCCCN(Cc1cc(Cl)c(O)c(OC)c1)c1ccc(C(O)(C(F)(F)F)C(F)(F)F)cc1 | 1 | <0.2
20 | 0.02 | 0.235 |  |  |  | 0.03 | O=C(O)Cc1cccc(OCCCN(Cc2cccc(C(F)(F)F)c2Cl)CC(c2ccccc2)c2ccccc2)c1 | 1 | 1
21 | 0.1 |  | 65 |  |  |  | O=S(=O)(c1ccccc1)N(CC(F)(F)F)c1ccc(C(O)(C(F)(F)F)C(F)(F)F)cc1 [T091317] | 1 | 1
